Earlier results, collected in US20090238905A1, “INFLAMMATION REDUCING ACTION OF SYNERGISTIC MIXTURES OF BISABOLOL AND GINGER EXTRACTS” (SYMRISE, Inc., priority 2008, published 2009).

SMILES | IL-1α inhibition (IL-1α) | LTB4 inhibition (LTB4) | PGE2 inhibition (PGE2) | inhibition of COX-2 expression (COX-2) | inhibition of activation of TNF-α (TNF-α) | inhibition of PGE2 production (HL-60 cells)
CC(C)=CCC[C@](C)(O)C1CC=C(C)CC1 (stereo partly shown) [Bisabolol, bisabolol] | very effective | very effective | not as a PGE2 inhibitor |  |  | 
CCCCC[C@H](O)CC(=O)CCc1ccc(O)c(OC)c1 [Gingerol] | did not have an effect |  |  | inhibit | inhibit activation of TNF-α | inhibit PGE2 production
